Test results reported in patent publication US20240270741A1 (Cogent Biosciences, Inc., priority 2023, published 2024).

target: FGFR2 (Homo sapiens, UniProt P21802); assay: FGFR wild type enzyme assay (HTRF KinEASE-TK), FGFR2; settings: Enz FGFR2 (nM), FGFR2 wild type enzyme
Sequence (P21802 399-821 limits assumed): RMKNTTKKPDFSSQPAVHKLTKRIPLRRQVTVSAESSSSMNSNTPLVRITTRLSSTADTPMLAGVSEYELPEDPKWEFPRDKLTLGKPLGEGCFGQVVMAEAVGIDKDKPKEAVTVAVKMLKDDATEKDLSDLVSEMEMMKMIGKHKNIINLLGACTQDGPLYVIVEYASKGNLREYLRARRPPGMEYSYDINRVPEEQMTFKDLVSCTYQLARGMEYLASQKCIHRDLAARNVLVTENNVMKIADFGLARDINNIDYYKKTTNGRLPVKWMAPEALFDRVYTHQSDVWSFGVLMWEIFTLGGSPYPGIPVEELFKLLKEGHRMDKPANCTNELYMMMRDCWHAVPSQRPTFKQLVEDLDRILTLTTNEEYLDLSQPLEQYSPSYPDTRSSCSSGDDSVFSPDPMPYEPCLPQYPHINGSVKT

SMILES	IC50 [nM]
Cc1c(-c2cc(Sc3ccccc3C#N)c3c(C#N)cnn3c2)cnn1[C@H]1C[C@H]2CC[C@@H](C1)N2C [Example 264, 4-((2-cyanophenyl)thio)-6-(5-methyl-1-((1R,3r,5S)-8-methyl-8-azabicyclo[3.2.1]octan-3-yl)-1H-pyrazol-4-yl)pyrazolo[1,5-a]pyridine-3-carbonitrile]	1
Cc1c(-c2cc(Sc3ccccc3C#N)c3c(C#N)cnn3c2)cnn1C1CCN(Cc2ccccn2)CC1 [Example 267, 4-((2-cyanophenyl)thio)-6-(5-methyl-1-(1-(pyridin-2-ylmethyl)piperidin-4-yl)-1H-pyrazol-4-yl)pyrazolo[1,5-a]pyridine-3-carbonitrile]	0.6
Cc1c(-c2cc(Sc3ccccc3C#N)c3c(C#N)cnn3c2)cnn1[C@H]1CC[C@@H](NC(=O)C(C)(C)O)CC1 [Example 268, N-((1s,4s)-4-(4-(3-cyano-4-((2-cyanophenyl)thio)pyrazolo [1,5-a]pyridin-6-yl)-5-methyl-1H-pyrazol-1-yl)cyclohexyl)-2-hydroxy-2-methylpropanamide]	0.4
Cc1c(-c2cc(Sc3ncccc3F)c3c(C#N)cnn3c2)cnn1[C@H]1CC[C@@H](NCC(=O)N(C)C)CC1 [Example 269, 2-(((1s,4s)-4-(4-(3-cyano-4-((3-fluoropyridin-2-yl)thio)pyrazolo[1,5-a]pyridin-6-yl)-5-methyl-1H-pyrazol-1-yl)cyclohexyl)amino)-N,N-dimethylacetamide]	1
Cc1c(-c2cc(Sc3ncccc3F)c3c(C#N)cnn3c2)cnn1[C@H]1CC[C@@H](NCc2ccccn2)CC1 [Example 270, 4-((3-fluoropyridin-2-yl)thio)-6-(5-methyl-1-((1s,4s)-4-((pyridin-2-ylmethyl)amino)cyclohex-yl)-1H-pyrazol-4-yl)pyrazolo[1,5-a]pyridine-3-carbonitrile]	0.7
CC(=O)N[C@H]1CC[C@@H](n2ncc(-c3cc(Sc4ccccc4C#N)c4c(C#N)cnn4c3)c2C)CC1 [Example 273, N-((1s,4s)-4-(4-(3-cyano-4-((2-cyanophenyl)thio)pyrazolo [1,5-a]pyridin-6-yl)-5-methyl-1H-pyrazol-1-yl)cyclohexyl)acetamide]	0.5
CC(=O)N[C@H]1CC[C@H](n2ncc(-c3cc(Sc4ccc(F)cc4C#N)c4c(C#N)cnn4c3)c2C)CC1 [Example 274, N-((1r,4r)-4-(4-(3-cyano-4-((2-cyano-4-fluorophenyl)thio)pyrazolo [1,5-a]pyridin-6-yl)-5-methyl-1H-pyrazol-1-yl)cyclohexyl)acetamide]	1
Cc1c(-c2cc(Sc3ccc(F)cc3C#N)c3c(C#N)cnn3c2)cnn1[C@H]1CC[C@H](O)CC1 [Example 275, 4-(2-cyano-4-fluoro-phenyl)sulfanyl-6-[1-(4-hydroxycyclohexyl)-5-methyl-pyrazol-4-yl]pyrazolo[1,5-a]pyridine-3-carbonitrile]	1
CC(=O)N1CCO[C@@H](Cn2ncc(-c3cc(Sc4ncccc4F)c4c(C#N)cnn4c3)c2C)C1 [Example 280, (R)-6-(1-((4-acetylmorpholin-2-yl)methyl)-5-methyl-1H-pyrazol-4-yl)-4-((3-fluoropyridin-2-yl)thio)pyrazolo[1,5-a]pyridine-3-carbonitrile]	12
Cc1c(-c2cc(Sc3ccc(F)cc3C#N)c3c(C#N)cnn3c2)cnn1[C@H]1CC[C@@H](O)CC1 [Example 288, 4-((2-cyano-4-fluorophenyl)thio)-6-(1-((1s,4s)-4-hydroxycyclohexyl)-5-methyl-1H-pyrazol-4-yl)pyrazolo[1,5-a]pyridine-3-carbonitrile]	1
Cc1c(-c2cc(Sc3ccc(F)cn3)c3c(C#N)cnn3c2)cnn1[C@H]1CC[C@@](C)(N)CC1 [Example 291, 6-(1-((1s,4s)-4-amino-4-methylcyclohexyl)-5-methyl-1H-pyrazol-4-yl)-4-((5-fluoropyridin-2-yl)thio)pyrazolo[1,5-a]pyridine-3-carbonitrile]	3

Further molecules by falling IC50, results first:

IC50 [nM]	SMILES
15	Cc1c(-c2cc(Sc3ncccc3F)c3c(C#N)cnn3c2)cnn1[C@@H]1CCNC[C@H]1O [Example 277, 4-((3-fluoropyridin-2-yl)thio)-6-(1-((3R,4R)-3-hydroxypiperidin-4-yl)-5-methyl-1H-pyrazol-4-yl)pyrazolo[1,5-a]pyridine-3-carbonitrile]
5	Cc1c(-c2cc(Sc3ccc(F)cn3)c3c(C#N)cnn3c2)cnn1[C@H]1CC[C@@H](O)CC1 [Example 290, 4-((5-fluoropyridin-2-yl)thio)-6-(1-((1s,4s)-4-hydroxycyclohexyl)-5-methyl-1H-pyrazol-4-yl)pyrazolo[1,5-a]pyridine-3-carbonitrile]
4	CC(=O)N1CCO[C@@H](Cn2ncc(-c3cc(Sc4ccccc4C#N)c4c(C#N)cnn4c3)c2C)C1 [Example 278, (R)-6-(1-((4-acetylmorpholin-2-yl)methyl)-5-methyl-1H-pyrazol-4-yl)-4-((2-cyanophenyl)thio)pyrazolo [1,5-a]pyridine-3-carbonitrile]
3	CC(=O)N1[C@@H]2CC[C@H]1C[C@H](n1ncc(-c3cc(Sc4ncccc4F)c4c(C#N)cnn4c3)c1C)C2 [Example 263, 6-(1-((1R,3s,5S)-8-acetyl-8-azabicyclo[3.2.1]octan-3-yl)-5-methyl-1H-pyrazol-4-yl)-4-((3-fluoropyridin-2-yl)thio)pyrazolo[1,5-a]pyridine-3-carbonitrile]
3	Cc1c(-c2cc(Sc3ncccc3F)c3c(C#N)cnn3c2)cnn1[C@H]1CCNC[C@@H]1O [Example 276, 4-[(3-fluoro-2-pyridyl)sulfanyl]-6-[1-[(3S,4S)-3-hydroxy-4-piperidyl]-5-methylpyrazol-4-yl]pyrazolo[1,5-a]pyridine-3-carbonitrile]
3	CC(=O)N1CCO[C@H](Cn2ncc(-c3cc(Sc4ccccc4C#N)c4c(C#N)cnn4c3)c2C)C1 [Example 279, (S)-6-(1-((4-acetylmorpholin-2-yl)methyl)-5-methyl-1H-pyrazol-4-yl)-4-((2-cyanophenyl)thio)pyrazolo [1,5-a]pyridine-3-carbonitrile]
2	Cc1c(-c2cc(Sc3ncccc3F)c3c(C#N)cnn3c2)cnn1[C@H]1CC[C@@H](CO)CC1 [Example 281, 4-((3-fluoropyridin-2-yl)thio)-6-(1-((1s,4s)-4-(hydroxymethyl)cyclohex-yl)-5-methyl-1H-pyrazol-4-yl)pyrazolo[1,5-a]pyridine-3-carbonitril]
1	Cc1c(-c2cc(Sc3ncccc3F)c3c(C#N)cnn3c2)cnn1[C@H]1CC[C@@H](NC(=O)C(C)(C)O)CC1 [Example 271, N-((1s,4s)-4-(4-(3-cyano-4-((3-fluoropyridin-2-yl)thio)pyrazolo[1,5-a]pyridin-6-yl)-5-methyl-1H-pyrazol-1-yl)cyclohexyl)-2-hydroxy-2-methylpropanamide]
1	CC(=O)N[C@H]1CC[C@H](n2ncc(-c3cc(Sc4ccccc4C#N)c4c(C#N)cnn4c3)c2C)CC1 [Example 272, N-((1r,4r)-4-(4-(3-cyano-4-((2-cyanophenyl)thio)pyrazolo [1,5-a]pyridin-6-yl)-5-methyl-1H-pyrazol-1-yl)cyclohexyl)acetamide]
1	Cc1c(-c2cc(Sc3ncccc3F)c3c(C#N)cnn3c2)cnn1[C@H]1CC[C@@](C)(N)CC1 [Example 282, 6-(1-((1s,4s)-4-amino-4-methylcyclohexyl)-5-methyl-1H-pyrazol-4-yl)-4-((3-fluoropyridin-2-yl)thio)pyrazolo[1,5-a]pyridine-3-carbonitrile]
1	Cc1c(-c2cc(Sc3ccccc3C#N)c3c(C#N)cnn3c2)cnn1[C@H]1CC[C@@H](NS(C)(=O)=O)CC1 [Example 285, N-((1s,4s)-4-(4-(3-cyano-4-((2-cyanophenyl)thio)pyrazolo [1,5-a]pyridin-6-yl)-5-methyl-1H-pyrazol-1-y)cyclohexyl)methane-sulfonamide]
1	Cc1c(-c2cc(Sc3ccccc3C#N)c3c(C#N)cnn3c2)cnn1C1CCN(Cc2ncccn2)CC1 [Example 286, 4-((2-cyanophenyl)thio)-6-(5-methyl-1-(1-(pyrimidin-2-ylmethyl)piperidin-4-yl)-1H-pyrazol-4-yl)pyrazolo[1,5-a]pyridine-3-carbonitrile]
0.5	Cc1c(-c2cc(Sc3ccccc3C#N)c3c(C#N)cnn3c2)cnn1C1CCN(CC(=O)N(C)C)CC1 [Example 266, 2-(4-(4-(3-cyano-4-((2-cyanophenyl)thio)pyrazolo [1,5-a]pyridin-6-yl)-5-methyl-1H-pyrazol-1-yl)piperidin-1-yl)-N,N-dimethylacetamide]
0.5	Cc1c(-c2cc(Sc3ccc(F)cc3C#N)c3c(C#N)cnn3c2)cnn1[C@@H]1C[C@H]2CC[C@@H](C1)N2C [Example 289, 4-((2-cyano-4-fluorophenyl)thio)-6-(5-methyl-1-((1R,3s,5S)-8-methyl-8-azabicyclo[3.2.1]octan-3-yl)-1H-pyrazol-4-yl)pyrazolo[1,5-a]pyridine-3-carbonitrile]
0.4	Cc1c(-c2cc(Sc3ccccc3C#N)c3c(C#N)cnn3c2)cnn1[C@@H]1C[C@H]2CC[C@@H](C1)N2C [Example 265, 4-((2-cyanophenyl)thio)-6-(5-methyl-1-((1R,3s,5S)-8-methyl-8-azabicyclo[3.2.1]octan-3-yl)-1H-pyrazol-4-yl)pyrazolo[1,5-a]pyridine-3-carbonitrile]
0.4	Cc1c(-c2cc(Sc3ccccc3C#N)c3c(C#N)cnn3c2)cnn1[C@H]1CC[C@H](N(C)CCO)CC1 [Example 284, 4-((2-cyanophenyl)thio)-6-(1-((1r,4SR)-4-((2-hydroxyethyl)(methyl)ami-no)cyclohexyl)-5-methyl-1H-pyrazol-4-yl)pyrazolo[1,5-a]pyridine-3-carbonitrile]
0.4	Cc1c(-c2cc(Sc3ccccc3C#N)c3c(C#N)cnn3c2)cnn1[C@H]1CC[C@@H](NCc2ccccn2)CC1 [Example 287, 4-((2-cyanophenyl)thio)-6-(5-methyl-1-((1s,4s)-4-((pyridin-2-ylmethyl)amino)cyclohex-yl)-1H-pyrazol-4-yl)pyrazolo[1,5-a]pyridine-3-carbonitrile]
